Experimental data published in ChEMBL document CHEMBL3399972, “Structure-activity relationships of a novel pyranopyridine series of Gram-negative bacterial efflux pump inhibitors” (Bioorg Med Chem, 2015).
Activity calls are given as the source filed them. How the calls were made is not given here.

Tests used:
Escherichia coli [1] = assay: Antibacterial activity against Escherichia coli at 100 uM; format: functional, organism-based
HeLa = assay: Cytotoxicity against human HeLa cells; format: cell-based
Escherichia coli [2] = assay: Inhibition of multidrug resistance efflux pump in wild-type Escherichia coli AB1157 assessed as concentration required to reduce piperacillin MIC by 4-fold by checkerboard assay
Escherichia coli [3] = assay: Inhibition of multidrug resistance efflux pump in Escherichia coli assessed as concentration required to reduce levofloxacin MIC by 4-fold by checkerboard assay

Compound | Activity (Escherichia coli [1]) | CC50 (HeLa) | INH (Escherichia coli [2]) | INH (Escherichia coli [3])
CC1(C)Cc2c(C#N)c(SCCc3c[nH]c4ccccc34)nc(N3CCOCC3)c2CO1 | inactive | 44.8 µM | 2.4 µM | 12.5 µM
COc1ccccc1CCSc1nc(N2CCOCC2)c2c(c1C#N)CC(C)(C)OC2 | inactive | > 100 µM | 3.1 µM | 3.1 µM
COCCN1CCN(c2nc(SCCOc3ccccc3)c(C#N)c3c2COC(C)(C)C3)CC1 | inactive | 33.9 µM | 12.5 µM | > 100 µM
CC1(C)Cc2c(C#N)c(SCCc3ccc(F)cc3)nc(N3CCOCC3)c2CO1 | inactive | 59 µM | 3.1 µM | 6.3 µM
CC1(C)Cc2c(C#N)c(SCCCc3ccccc3)nc(N3CCOCC3)c2CO1 | inactive |  | > 100 µM | > 100 µM
CC1(C)Cc2c(C#N)c(SCCc3cccc(-c4nnn[nH]4)c3)nc(N3CCOCC3)c2CO1 | inactive | 20.7 µM | 12.5 µM | > 100 µM
COCCN1CCN(c2nc(SCCc3cccc(Br)c3)c(C#N)c3c2COC(C)(C)C3)CC1 | inactive | 75.1 µM | 2.8 µM | 12.5 µM
COCCN1CCN(c2nc(SCCc3cccc(OC)c3)c(C#N)c3c2COC(C)(C)C3)CC1 | inactive | 46.5 µM | 4.7 µM | 6.3 µM
COCCN1CCN(c2nc(SCCc3cccc(F)c3)c(C#N)c3c2COC(C)(C)C3)CC1 | inactive | 37.9 µM | 6.3 µM | > 100 µM
COCCN1CCN(c2nc(SCCc3ccccc3F)c(C#N)c3c2COC(C)(C)C3)CC1 | inactive | 30.6 µM | 9.4 µM | 12.5 µM
COc1ccc(CCSc2nc(N3CCOCC3)c3c(c2C#N)CC(C)(C)OC3)cc1 | inactive | > 100 µM | 3.1 µM | 6.3 µM
N#Cc1c(SCCc2ccccn2)nc(N2CCOCC2)c2c1CCOC2 | inactive |  | > 100 µM | > 100 µM
CC1CN(c2nc(SCCc3ccc(NS(C)(=O)=O)cc3)c(C#N)c3c2COC(C)(C)C3)CC(C)O1 (stereo unspecified) | inactive | 67 µM | 6.3 µM | 6.3 µM
CC1(C)Cc2c(C#N)c(SCCc3cccc(C#N)c3)nc(N3CCOCC3)c2CO1 | inactive | > 100 µM | 3.9 µM | 12.5 µM
CC1(C)Cc2c(C#N)c(SCCc3ccccc3)nc(N3CCCC3)c2CO1 | inactive | 20.2 µM | > 100 µM | > 100 µM
CC(=O)Oc1cccc(CCSc2nc(N3CCOCC3)c3c(c2C#N)CC(C)(C)OC3)c1 | inactive | 48.3 µM | 1.6 µM | 1.6 µM
CC1(C)Cc2c(C#N)c(SCCc3coc4ccccc34)nc(N3CCOCC3)c2CO1 | inactive | > 100 µM | 6.3 µM | > 100 µM
CC1(C)Cc2c(c(N3CCOCC3)nc(SCCc3ccccc3)c2C(=N)NO)CO1 | inactive |  | > 100 µM | > 100 µM
CC1(C)Cc2c(C#N)c(SCCc3nnn[nH]3)nc(N3CCOCC3)c2CO1 | inactive | 30.2 µM | > 100 µM | > 100 µM
CC1CN(c2nc(SCCc3ccc(NC(=O)C(C)(C)C)cc3)c(C#N)c3c2COC(C)(C)C3)CC(C)O1 (stereo unspecified) | inactive | > 100 µM | > 100 µM | > 100 µM
CN(C)c1nc(SCCc2ccccc2)c(C#N)c2c1COC(C)(C)C2 | inactive | 57.4 µM | 9.4 µM | > 100 µM

Compound | Activity (Escherichia coli [1]) | CC50 (HeLa) | INH (Escherichia coli [2]) | INH (Escherichia coli [3])
CC1(C)Cc2c(C#N)c(SCCc3ccccc3)nc(N3CCCNCC3)c2CO1 | inactive | 20.3 µM | 12.5 µM | 12.5 µM
CC1CN(c2nc(SCCc3ccccc3)c(C#N)c3c2COC(C)(C)C3)CC(C)O1 (stereo unspecified) | inactive | > 100 µM |  | 
CC1(C)Cc2c(C#N)c(SCCc3ccccc3F)nc(N3CCOCC3)c2CO1 | inactive | > 100 µM |  | > 100 µM
CC1(C)Cc2c(C#N)c(SCCc3ccccc3)nc(N3CCCOCC3)c2CO1 | inactive | > 100 µM | 1.6 µM | > 100 µM
COCCN1CCN(c2nc(SCCc3cccnc3)c(C#N)c3c2COC(C)(C)C3)CC1 | inactive | > 100 µM | 25 µM | > 100 µM
CCN(CC)c1nc(SCCc2ccccc2)c(C#N)c2c1COC(C)(C)C2 | inactive | 38.2 µM | 6.3 µM | > 100 µM
CC1(C)Cc2c(C#N)c(S(=O)(=O)CCc3ccccc3)nc(N3CCOCC3)c2CO1 | inactive |  | > 100 µM | > 100 µM
CC1(C)Cc2c(C#N)c(SCCc3ccccn3)nc(N3CCOCC3)c2CO1 | inactive | 78.1 µM | 25 µM | 50 µM
COCCN1CCN(c2nc(SCCc3ccncc3)c(C#N)c3c2COC(C)(C)C3)CC1 | inactive | 95.9 µM | 50 µM | 6.3 µM
CC1(C)Cc2c(C#N)c(SCCc3cccc(F)c3)nc(N3CCOCC3)c2CO1 | inactive | > 100 µM | 4.7 µM | > 100 µM
CC1(C)Cc2c(C#N)c(SCC(O)c3ccccc3)nc(N3CCOCC3)c2CO1 (stereo unspecified) | inactive |  | > 100 µM | > 100 µM
N#Cc1c(SCCc2ccccc2)nc(N2CCOCC2)c2c1CCOC2 | inactive |  | > 100 µM | > 100 µM
CN1CCN(c2nc(SCCc3ccccc3)c(C#N)c3c2COC(C)(C)C3)CC1 | inactive | 14.4 µM | 6.3 µM | 6.3 µM
CC1(C)Cc2c(C#N)c(SCCc3ccccc3)nc(N3CCSCC3)c2CO1 | inactive | > 100 µM | 1.6 µM | > 100 µM
CC1(C)Cc2c(C#N)c(SCCC#N)nc(N3CCOCC3)c2CO1 | inactive | > 100 µM | > 100 µM | > 100 µM
CC1(C)Cc2c(c(N3CCOCC3)nc(SCCc3ccccc3)c2C(N)=O)CO1 | inactive |  | > 100 µM | > 100 µM
CC1(C)Cc2c(C#N)c(SCCc3ccc(S(=O)(=O)O)cc3)nc(N3CCOCC3)c2CO1 | inactive | 17.2 µM | > 100 µM | > 100 µM
CN1CCCN(c2nc(SCCc3ccccc3)c(C#N)c3c2COC(C)(C)C3)CC1 | inactive | 16.4 µM | 25 µM | 12.5 µM
CC1(C)Cc2c(C#N)c(SCCc3cccc(Cl)c3)nc(N3CCOCC3)c2CO1 | inactive | > 100 µM | 3.1 µM | 3.1 µM
CC1(C)Cc2c(C#N)c([S+]([O-])CCc3ccccc3)nc(N3CCOCC3)c2CO1 (stereo unspecified) | inactive |  | > 100 µM | > 100 µM
CC1(C)Cc2c(C#N)c(SCC(=O)c3ccccc3)nc(N3CCOCC3)c2CO1 | inactive |  | > 100 µM | > 100 µM
